In ChEMBL document CHEMBL4507295 (2021):

Tests used:
[1] = target: Ankyrin repeat and protein kinase domain-containing protein 1 (Homo sapiens) (UniProt Q8NFD2); conditions: Compound concentration 1000.0 nM
[2] = target: Serine/threonine-protein kinase ULK3 (Homo sapiens) (UniProt Q6PHR2); conditions: Compound concentration 1000.0 nM
[3] = target: 5'-AMP-activated protein kinase catalytic subunit alpha-2 (Homo sapiens) (UniProt P54646); conditions: Compound concentration 1000.0 nM
[4] = target: Casein kinase II subunit alpha (Homo sapiens) (UniProt P68400); conditions: Compound concentration 1000.0 nM
[5] = target: Serine/threonine-protein kinase PLK2 (Homo sapiens) (UniProt Q9NYY3); conditions: Compound concentration 1000.0 nM
Serine/threonine-protein kinase PLK2 (Homo sapiens), sequence (Q9NYY3 whole entry, looked up): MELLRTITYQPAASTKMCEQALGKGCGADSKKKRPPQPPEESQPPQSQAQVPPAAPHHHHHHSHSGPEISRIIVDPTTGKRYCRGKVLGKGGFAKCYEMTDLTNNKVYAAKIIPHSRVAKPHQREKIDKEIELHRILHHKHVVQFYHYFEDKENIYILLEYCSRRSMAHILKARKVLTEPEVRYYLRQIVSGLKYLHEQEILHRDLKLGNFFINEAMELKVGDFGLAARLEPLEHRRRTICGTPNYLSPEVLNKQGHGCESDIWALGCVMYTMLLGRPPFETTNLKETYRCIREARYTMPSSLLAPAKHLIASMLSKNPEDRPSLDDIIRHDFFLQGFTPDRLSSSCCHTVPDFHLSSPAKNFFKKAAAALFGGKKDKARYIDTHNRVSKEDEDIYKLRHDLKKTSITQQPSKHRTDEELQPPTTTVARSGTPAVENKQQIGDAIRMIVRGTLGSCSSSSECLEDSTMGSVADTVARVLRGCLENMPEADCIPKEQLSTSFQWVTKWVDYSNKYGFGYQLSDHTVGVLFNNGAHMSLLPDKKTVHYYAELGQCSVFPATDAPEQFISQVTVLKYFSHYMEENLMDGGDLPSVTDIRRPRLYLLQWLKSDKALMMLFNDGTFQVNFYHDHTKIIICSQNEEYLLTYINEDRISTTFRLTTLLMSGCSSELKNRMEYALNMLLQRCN

[6] = target: Dual specificity protein kinase TTK (Homo sapiens) (UniProt P33981); conditions: Compound concentration 1000.0 nM
[7] = target: Serine/threonine-protein kinase tousled-like 2 (Homo sapiens) (UniProt Q86UE8); conditions: Compound concentration 1000.0 nM
[8] = target: Non-receptor tyrosine-protein kinase TNK1 (Homo sapiens) (UniProt Q13470); conditions: Compound concentration 1000.0 nM
Non-receptor tyrosine-protein kinase TNK1 (Homo sapiens), sequence (Q13470 whole entry): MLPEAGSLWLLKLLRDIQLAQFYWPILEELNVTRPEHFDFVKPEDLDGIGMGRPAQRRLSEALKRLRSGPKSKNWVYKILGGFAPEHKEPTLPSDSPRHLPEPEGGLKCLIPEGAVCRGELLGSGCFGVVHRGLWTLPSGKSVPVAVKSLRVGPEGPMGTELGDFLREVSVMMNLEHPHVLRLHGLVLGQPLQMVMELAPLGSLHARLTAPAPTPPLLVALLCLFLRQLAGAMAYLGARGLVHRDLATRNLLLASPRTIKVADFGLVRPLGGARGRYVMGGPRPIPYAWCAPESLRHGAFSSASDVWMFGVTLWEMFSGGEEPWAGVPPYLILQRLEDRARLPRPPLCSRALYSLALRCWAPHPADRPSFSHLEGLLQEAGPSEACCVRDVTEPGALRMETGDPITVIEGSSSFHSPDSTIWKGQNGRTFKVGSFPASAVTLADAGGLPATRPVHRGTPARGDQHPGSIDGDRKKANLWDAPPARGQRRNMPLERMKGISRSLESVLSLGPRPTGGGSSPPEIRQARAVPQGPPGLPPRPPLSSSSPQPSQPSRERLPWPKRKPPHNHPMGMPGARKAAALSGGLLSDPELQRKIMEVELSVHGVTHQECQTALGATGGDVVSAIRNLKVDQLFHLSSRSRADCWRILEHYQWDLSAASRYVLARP

[9] = tested on: Receptor-type tyrosine-protein kinase FLT3 (Homo sapiens), P36888 [R834Q]; conditions: Compound concentration 1000.0 nM
[10] = target: MAP/microtubule affinity-regulating kinase 4 (Homo sapiens) (UniProt Q96L34); conditions: Compound concentration 1000.0 nM
[11] = target: Ephrin type-A receptor 1 (Homo sapiens) (UniProt P21709); conditions: Compound concentration 1000.0 nM
[12] = target: Ephrin type-A receptor 8 (Homo sapiens) (UniProt P29322); conditions: Compound concentration 1000.0 nM
[13] = target: Serine/threonine-protein kinase B-raf (Homo sapiens) (UniProt P15056); conditions: Compound concentration 1000.0 nM
[14] = target: Serine/threonine-protein kinase STK11 (Homo sapiens) (UniProt Q15831); conditions: Compound concentration 1000.0 nM
[15] = target: Ribosomal protein S6 kinase alpha-4 (Homo sapiens) (UniProt O75676); conditions: Compound concentration 1000.0 nM
[16] = target: Myosin light chain kinase family member 4 (Homo sapiens) (UniProt Q86YV6); conditions: Compound concentration 1000.0 nM
[17] = target: Myosin light chain kinase (Homo sapiens) (UniProt Q32MK0); conditions: Compound concentration 1000.0 nM
[18] = target: Inhibitor of nuclear factor kappa-B kinase subunit epsilon (Homo sapiens) (UniProt Q14164); conditions: Compound concentration 1000.0 nM
Inhibitor of nuclear factor kappa-B kinase subunit epsilon (Homo sapiens), sequence (Q14164 whole entry): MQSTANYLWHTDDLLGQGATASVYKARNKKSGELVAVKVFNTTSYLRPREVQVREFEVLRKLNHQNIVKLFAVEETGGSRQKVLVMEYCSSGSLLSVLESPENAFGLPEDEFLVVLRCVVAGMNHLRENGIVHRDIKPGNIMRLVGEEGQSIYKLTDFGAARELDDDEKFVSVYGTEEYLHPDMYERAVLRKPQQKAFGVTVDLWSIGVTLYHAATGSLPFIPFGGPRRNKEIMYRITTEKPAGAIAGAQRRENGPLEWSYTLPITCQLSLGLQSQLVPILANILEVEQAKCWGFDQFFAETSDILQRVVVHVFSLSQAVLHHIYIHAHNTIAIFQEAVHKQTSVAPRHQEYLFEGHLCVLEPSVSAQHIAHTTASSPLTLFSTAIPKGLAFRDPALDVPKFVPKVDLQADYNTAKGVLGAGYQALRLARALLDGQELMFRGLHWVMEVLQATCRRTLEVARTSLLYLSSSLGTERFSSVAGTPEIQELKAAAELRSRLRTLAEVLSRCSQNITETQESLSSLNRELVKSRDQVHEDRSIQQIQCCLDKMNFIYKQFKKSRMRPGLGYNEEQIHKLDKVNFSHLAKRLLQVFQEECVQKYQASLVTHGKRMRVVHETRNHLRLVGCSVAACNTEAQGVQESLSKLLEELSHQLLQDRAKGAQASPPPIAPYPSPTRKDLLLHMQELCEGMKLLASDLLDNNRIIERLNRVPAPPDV

[19] = target: Myosin light chain kinase, smooth muscle (Homo sapiens) (UniProt Q15746); conditions: Compound concentration 1000.0 nM
[20] = tested on: ALK tyrosine kinase receptor (Homo sapiens), Q9UM73 [L1196M]; conditions: Compound concentration 1000.0 nM
[21] = target: Ribosomal protein S6 kinase alpha-3 (Homo sapiens) (UniProt P51812); conditions: Compound concentration 1000.0 nM
[22] = target: Interleukin-1 receptor-associated kinase 1 (Homo sapiens) (UniProt P51617); conditions: Compound concentration 1000.0 nM
[23] = target: Serine/threonine-protein kinase N1 (Homo sapiens) (UniProt Q16512); conditions: Compound concentration 1000.0 nM
[24] = target: Serine/threonine-protein kinase WNK2 (Homo sapiens) (UniProt Q9Y3S1); conditions: Compound concentration 1000.0 nM
[25] = tested on: Tyrosine-protein kinase ABL1 (Homo sapiens), P00519 [Q252H]; conditions: Compound concentration 1000.0 nM
[26] = target: Mitogen-activated protein kinase 13 (Homo sapiens) (UniProt O15264); conditions: Compound concentration 1000.0 nM
[27] = target: SRSF protein kinase 3 (Homo sapiens) (UniProt Q9UPE1); conditions: Compound concentration 1000.0 nM
[28] = target: Serine/threonine-protein kinase WNK4 (Homo sapiens) (UniProt Q96J92); conditions: Compound concentration 1000.0 nM
[29] = target: Macrophage colony-stimulating factor 1 receptor (Homo sapiens) (UniProt P07333); conditions: Compound concentration 1000.0 nM
[30] = target: Beta-3 adrenergic receptor (Homo sapiens) (UniProt P13945); conditions: Compound concentration 10.0 uM
[31] = target: RAF proto-oncogene serine/threonine-protein kinase (Homo sapiens) (UniProt P04049); conditions: Compound concentration 1000.0 nM
RAF proto-oncogene serine/threonine-protein kinase (Homo sapiens), sequence (P04049 whole entry): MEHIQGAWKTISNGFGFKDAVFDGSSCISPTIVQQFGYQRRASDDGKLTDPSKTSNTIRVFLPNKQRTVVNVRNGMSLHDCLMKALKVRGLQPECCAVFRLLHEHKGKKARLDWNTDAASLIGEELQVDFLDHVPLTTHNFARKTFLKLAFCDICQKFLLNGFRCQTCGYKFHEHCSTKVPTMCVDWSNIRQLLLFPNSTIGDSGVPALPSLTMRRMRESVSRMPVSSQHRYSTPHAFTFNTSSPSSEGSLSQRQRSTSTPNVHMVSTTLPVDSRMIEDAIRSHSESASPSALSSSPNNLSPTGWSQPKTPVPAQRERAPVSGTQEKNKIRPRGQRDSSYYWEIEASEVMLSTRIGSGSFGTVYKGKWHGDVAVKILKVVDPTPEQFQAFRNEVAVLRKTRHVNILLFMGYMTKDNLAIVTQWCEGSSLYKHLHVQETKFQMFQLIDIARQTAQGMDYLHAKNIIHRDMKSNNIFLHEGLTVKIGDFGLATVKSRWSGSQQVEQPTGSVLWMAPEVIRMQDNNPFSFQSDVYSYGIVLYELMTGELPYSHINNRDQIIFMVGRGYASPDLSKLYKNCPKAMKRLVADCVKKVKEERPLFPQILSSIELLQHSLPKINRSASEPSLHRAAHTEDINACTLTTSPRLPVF

[32] = target: Beta-1 adrenergic receptor (Homo sapiens) (UniProt P08588); conditions: Compound concentration 10.0 uM
[33] = target: Mitogen-activated protein kinase kinase kinase kinase 5 (Homo sapiens) (UniProt Q9Y4K4); conditions: Compound concentration 1000.0 nM
[34] = target: Serine/threonine-protein kinase NIM1 (Homo sapiens) (UniProt Q8IY84); conditions: Compound concentration 1000.0 nM
[35] = target: Mast/stem cell growth factor receptor Kit (Homo sapiens) (UniProt P10721); conditions: Compound concentration 1000.0 nM
Mast/stem cell growth factor receptor Kit (Homo sapiens), sequence (P10721 whole entry): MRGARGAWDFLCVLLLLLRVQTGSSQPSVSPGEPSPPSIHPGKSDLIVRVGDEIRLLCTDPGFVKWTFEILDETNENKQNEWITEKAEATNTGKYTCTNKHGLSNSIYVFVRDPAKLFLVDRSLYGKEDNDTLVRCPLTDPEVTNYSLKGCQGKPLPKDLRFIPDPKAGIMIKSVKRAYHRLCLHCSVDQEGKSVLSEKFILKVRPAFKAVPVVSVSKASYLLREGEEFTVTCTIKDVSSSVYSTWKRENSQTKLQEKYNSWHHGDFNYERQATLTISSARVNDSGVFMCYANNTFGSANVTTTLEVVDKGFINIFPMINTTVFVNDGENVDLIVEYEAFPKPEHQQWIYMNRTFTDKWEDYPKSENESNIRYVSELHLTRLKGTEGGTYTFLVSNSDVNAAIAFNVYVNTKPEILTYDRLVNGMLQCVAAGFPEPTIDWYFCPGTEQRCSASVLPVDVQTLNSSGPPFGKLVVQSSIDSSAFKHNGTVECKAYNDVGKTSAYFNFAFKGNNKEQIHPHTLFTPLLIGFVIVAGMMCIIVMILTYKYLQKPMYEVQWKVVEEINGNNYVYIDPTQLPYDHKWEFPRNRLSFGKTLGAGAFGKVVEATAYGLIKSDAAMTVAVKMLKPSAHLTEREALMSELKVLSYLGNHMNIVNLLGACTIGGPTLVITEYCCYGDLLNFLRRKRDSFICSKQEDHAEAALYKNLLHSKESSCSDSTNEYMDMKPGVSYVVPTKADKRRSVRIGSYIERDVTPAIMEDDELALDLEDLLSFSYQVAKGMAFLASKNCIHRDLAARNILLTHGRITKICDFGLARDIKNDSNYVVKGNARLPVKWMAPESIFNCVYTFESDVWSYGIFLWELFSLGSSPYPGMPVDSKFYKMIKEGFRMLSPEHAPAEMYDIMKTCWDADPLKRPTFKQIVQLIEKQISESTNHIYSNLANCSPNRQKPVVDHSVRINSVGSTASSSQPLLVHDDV

[36] = target: Ephrin type-B receptor 6 (Homo sapiens) (UniProt O15197); conditions: Compound concentration 1000.0 nM
[37] = target: Microtubule-associated serine/threonine-protein kinase 1 (Homo sapiens) (UniProt Q9Y2H9); conditions: Compound concentration 1000.0 nM
[38] = target: Hepatocyte growth factor receptor (Homo sapiens) (UniProt P08581); conditions: Compound concentration 1000.0 nM
[39] = target: Dual specificity tyrosine-phosphorylation-regulated kinase 2 (Homo sapiens) (UniProt Q92630); conditions: Compound concentration 1000.0 nM
[40] = target: Dual specificity protein kinase CLK1 (Homo sapiens) (UniProt P49759); conditions: Compound concentration 1000.0 nM
[41] = target: Atypical kinase COQ8A, mitochondrial (Homo sapiens) (UniProt Q8NI60); conditions: Compound concentration 1000.0 nM
Atypical kinase COQ8A, mitochondrial (Homo sapiens), sequence (Q8NI60 163-647 limits assumed): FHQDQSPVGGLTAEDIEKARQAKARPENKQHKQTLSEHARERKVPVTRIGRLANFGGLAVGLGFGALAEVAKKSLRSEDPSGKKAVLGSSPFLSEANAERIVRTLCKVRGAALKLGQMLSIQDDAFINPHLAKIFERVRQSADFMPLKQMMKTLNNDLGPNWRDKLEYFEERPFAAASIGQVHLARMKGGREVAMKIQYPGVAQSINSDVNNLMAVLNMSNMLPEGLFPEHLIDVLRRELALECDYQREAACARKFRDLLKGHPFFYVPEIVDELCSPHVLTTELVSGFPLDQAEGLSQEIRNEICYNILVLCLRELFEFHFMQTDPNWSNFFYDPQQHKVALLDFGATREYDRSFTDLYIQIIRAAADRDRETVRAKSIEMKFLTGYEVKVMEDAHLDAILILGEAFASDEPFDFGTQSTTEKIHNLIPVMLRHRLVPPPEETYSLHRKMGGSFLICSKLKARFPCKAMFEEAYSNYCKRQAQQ

[42] = target: Testis-specific serine/threonine-protein kinase 3 (Homo sapiens) (UniProt Q96PN8); conditions: Compound concentration 1000.0 nM
Testis-specific serine/threonine-protein kinase 3 (Homo sapiens), sequence (Q96PN8 whole entry): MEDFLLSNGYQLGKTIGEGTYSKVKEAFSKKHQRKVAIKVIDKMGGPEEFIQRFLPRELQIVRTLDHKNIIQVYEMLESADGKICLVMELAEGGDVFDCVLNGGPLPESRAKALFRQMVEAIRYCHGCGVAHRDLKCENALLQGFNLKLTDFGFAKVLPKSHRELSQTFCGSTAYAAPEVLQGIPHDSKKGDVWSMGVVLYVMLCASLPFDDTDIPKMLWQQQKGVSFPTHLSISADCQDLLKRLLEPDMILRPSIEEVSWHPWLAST

[43] = target: Tyrosine-protein kinase Lck (Homo sapiens) (UniProt P06239); conditions: Compound concentration 1000.0 nM
Tyrosine-protein kinase Lck (Homo sapiens), sequence (P06239 2-509 limits assumed): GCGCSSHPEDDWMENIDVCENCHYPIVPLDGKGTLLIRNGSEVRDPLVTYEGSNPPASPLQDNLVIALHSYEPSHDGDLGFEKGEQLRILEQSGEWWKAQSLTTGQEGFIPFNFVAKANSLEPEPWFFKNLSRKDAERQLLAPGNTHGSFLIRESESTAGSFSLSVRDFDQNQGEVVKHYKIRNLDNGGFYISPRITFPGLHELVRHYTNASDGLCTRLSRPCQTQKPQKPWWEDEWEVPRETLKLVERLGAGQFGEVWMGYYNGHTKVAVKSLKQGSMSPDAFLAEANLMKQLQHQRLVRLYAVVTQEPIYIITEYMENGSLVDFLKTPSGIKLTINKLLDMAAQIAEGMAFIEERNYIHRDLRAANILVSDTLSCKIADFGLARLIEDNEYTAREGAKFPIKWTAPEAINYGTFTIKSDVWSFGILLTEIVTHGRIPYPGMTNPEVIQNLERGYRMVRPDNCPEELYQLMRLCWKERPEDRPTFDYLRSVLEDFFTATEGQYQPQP

[44] = target: Serine/threonine-protein kinase RIO3 (Homo sapiens) (UniProt O14730); conditions: Compound concentration 1000.0 nM
[45] = tested on: Epidermal growth factor receptor (Homo sapiens), P00533 [T790M]; conditions: Compound concentration 1000.0 nM

N#CC1(c2ccccn2)CCN(Cc2cc(C(=O)O)c(=O)n3ccccc23)CC1 [MSD-M1PAM]
inactive: residual activity [1] 68% | residual activity [2] 89% | residual activity [3] 100% | residual activity [4] 86% | residual activity [5] 80% | residual activity [6] 88% | residual activity [7] 98% | residual activity [8] 93% | residual activity [9] 100% | residual activity [10] 98% | residual activity [11] 100% | residual activity [12] 100% | residual activity [13] 93% | residual activity [14] 100% | residual activity [15] 94% | residual activity [16] 100% | residual activity [17] 87% | residual activity [18] 88% | residual activity [19] 87% | residual activity [20] 100% | residual activity [21] 100% | residual activity [22] 77% | residual activity [23] 100% | residual activity [24] 79% | residual activity [25] 89% | residual activity [26] 100% | residual activity [27] 95% | residual activity [28] 75% | residual activity [29] 100% | inhibition [30] -5.05% | residual activity [31] 100% | inhibition [32] 16.2% | residual activity [33] 87% | residual activity [34] 69% | residual activity [35] 87% | residual activity [36] 73% | residual activity [37] 50% | residual activity [38] 84% | residual activity [39] 95% | residual activity [40] 80% | residual activity [41] 100% | residual activity [42] 100% | residual activity [43] 97% | residual activity [44] 96% | residual activity [45] 100%

N#CC1(c2ccccn2)CCN(Cc2cc(C(=O)N3CCCC3)c(=O)n3ccccc23)CC1
inactive: residual activity [1] 79% | residual activity [2] 96% | residual activity [3] 100% | residual activity [4] 100% | residual activity [5] 100% | residual activity [6] 98% | residual activity [7] 100% | residual activity [8] 72% | residual activity [9] 100% | residual activity [10] 90% | residual activity [11] 83% | residual activity [12] 100% | residual activity [13] 100% | residual activity [14] 77% | residual activity [15] 79% | residual activity [16] 95% | residual activity [17] 76% | residual activity [18] 94% | residual activity [19] 100% | residual activity [20] 100% | residual activity [21] 100% | residual activity [22] 100% | residual activity [23] 91% | residual activity [24] 100% | residual activity [25] 97% | residual activity [26] 89% | residual activity [27] 82% | residual activity [28] 81% | residual activity [29] 86% | inhibition [30] 17.4% | residual activity [31] 100% | inhibition [32] -5.76% | residual activity [33] 75% | residual activity [34] 95% | residual activity [35] 100% | residual activity [36] 100% | residual activity [37] 82% | residual activity [38] 95% | residual activity [39] 100% | residual activity [40] 85% | residual activity [41] 85% | residual activity [42] 100% | residual activity [43] 100% | residual activity [44] 90% | residual activity [45] 90%
